Reference: patent US12521439B2, “Methods and materials for modulating Nrf2 pathway” (The General Hospital Corporation, priority 2019, dated 2026)

Columns and labels:
bovine catalase = target: T1, bovine catalase (Bos taurus, UniProt P00432); experiment: Differential alkylation mass spectrometry, catalase; assay type: binding
T1 construct: purchased Sigma-Aldrich
T1 sequence (P00432 1-527): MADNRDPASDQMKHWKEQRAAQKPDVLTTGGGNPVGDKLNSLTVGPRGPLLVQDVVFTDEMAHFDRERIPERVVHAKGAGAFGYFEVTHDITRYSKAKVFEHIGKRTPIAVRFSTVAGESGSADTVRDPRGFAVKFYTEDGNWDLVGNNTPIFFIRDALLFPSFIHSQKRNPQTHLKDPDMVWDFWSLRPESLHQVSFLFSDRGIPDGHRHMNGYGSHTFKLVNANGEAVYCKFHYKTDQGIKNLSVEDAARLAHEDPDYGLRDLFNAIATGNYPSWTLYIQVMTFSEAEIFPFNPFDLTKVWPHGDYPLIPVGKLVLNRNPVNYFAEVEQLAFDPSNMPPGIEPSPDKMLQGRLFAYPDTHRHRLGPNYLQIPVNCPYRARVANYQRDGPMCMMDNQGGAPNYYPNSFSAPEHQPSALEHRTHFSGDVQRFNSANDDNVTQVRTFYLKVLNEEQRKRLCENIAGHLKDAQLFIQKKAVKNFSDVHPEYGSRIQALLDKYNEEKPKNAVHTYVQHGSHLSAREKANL
Experimental: Differential Alkylation for OBT Binding Characterization: 10 μg of bovine catalase (Sigma-Aldrich) were suspended in 100 μl of 50 mM HEPES (pH 8.5)/0.5% SDS and OBT, iodoacetamide (IAA), or N-ethylmaleimide (NEM) was added to a final concentration of 5 mM and the mixtures were incubated for 30 min at RT in the dark before adding IAA to all three reactions to a final concentration of 10 mM in the sample treated with IAA in the first alkylation step, and of 5 mM in the other two samples. Upon incubation at RT for 30 min in the dark dithiothreitol (DTT) was added to all reaction to a final concentration of 20 mM and the reactions were first incubated at RT in the dark for 15 min and then at 56° C. for 30 min. Then, NEM was added to all reactions to a final concentration of 100 mM followed by incubation at RT in the dark for 30 min. The experiments were done in triplicate. Samples were analyzed by mass spectrometry as described below.
Quantitative Proteomics: Cell pellets were lysed in a buffer of 75 mM NaCl, 50 mM HEPES pH 8.5, 10 mM sodium pyrophosphate, 10 mM sodium fluoride, 10 mM β-glycerophosphate, 10 mM sodium orthovanadate, 10 mM PMSF, Roche complete mini EDTA free protease inhibitors (1 tablet per 20 ml), and 3% SDS. Lysis was achieved by passing the suspension through a 21-gauge needle 20 times. Proteins were prepared for proteomics analysis as described previously. […] Twelve fractions were analyzed by multiplexed quantitative proteomics performed on an Orbitrap Fusion mass spectrometer (Thermo Scientifc) using a Simultaneous Precursor Selection (SPS) based MS3 method. […] For the cell line samples only MS3 with an average signal-to-noise value of larger than 40 per reporter ion as well as with an isolation specificity of larger than 0.75 were considered for quantification. […] A two-step normalization of the protein TMT-intensities was performed by first normalizing the protein intensities over all acquired TMT channels for each protein based on the median average protein intensity calculated for all proteins. […]

[1] = test system: patient-derived GBM8 GSC tumors; experiment: FDG-PET imaging of orthotopic GSC brain tumors; assay type: in vivo, mice; details: 3 doses of 10 mg/kg within 24 h, imaged 4 h after last dose; tumor to muscle ratio
Description: In vivo Tumor Models: Animal experiments performed by our laboratory were approved by the Massachusetts General Hospital Subcommittee on Research Animal Care. Female athymic nude mice (6-8 weeks) were used in all studies with the exception of pharmacokinetics analysis. For brain tumors xenograft model, GBM8 cells (1×10^5 cells/mouse) stably expressing Fluc were stereotactically implanted into the left striatum of animals. Following implantation, animals were regularly imaged for Fluc to monitor brain tumor growth. To generate the breast cancer model, MDA-MB-231 cells (2.5×10^5 cells/mouse) expressing Fluc were mixed with Matrigel 1:1 (v/v) (BD Matrigel) and injected into the mammary fat pad of mice. Tris-OBT was dissolved in PBS and administered intraperitoneally. Tumor volumes were measured using a caliper and calculated according to the following formula: volume=(width)^2×length/2. […]
FDG-PET imaging: Mouse PET/CT scans (n=6, 3 per group) were performed sequentially using a custom-designed mouse bed and PET/CT gantry adapter. […] The same ROIs are then copied to the matching PET images for quantification of the ^18F-FDG PET signal as the standard uptake values (SUVs). […]

[2] = 2-fold excess of DTT over alkylating reagents

- binding type at Cys-232 and Cys-460 (bovine catalase; [2]): tight or irreversible binding
- binding type at Cys-377 (bovine catalase; [2]): reversible binding
Structure (SMILES): COC1=CC(=O)C(O)=C/C1=C/C=C/c1ccccc1 [OBT, (Z)-2-hydroxy-5-methoxy-4-((E)-3-phenylallylidene)cyclohexa-2,5-dien-1-one]
- binding to cysteine residues of bovine catalase (bovine catalase; 5 mM OBT, differential alkylation): binds to all detected peptides with cysteine residues
- decrease in FDG tumor uptake [1]: ~50%
